# Experimental data taken from patent US10835542B2, “9-aminomethyl minocycline compounds and use thereof in treating community-acquired bacterial pneumonia (CABP)” (Paratek Pharmaceuticals, Inc., priority 2016, dated 2020).
# Read-outs that look alike come from different tables or passages of the source.
# Columns and labels:
# [1] = Intra-pulmonary (ELF, AC/AM by BAL) and plasma PK after multiple iv doses in healthy adult subjects; assay type: in vivo, human; settings: for Kp at 0.5 h / Kp at 1 h / Kp at 2 h / Kp at 4 h / Kp at 8 h / Kp at 12 h / Kp at 24 h / AUC / Kp: intravenous, 100 mg; for concentration at 0.5 h: 0.5 h after fifth 100 mg iv dose; for concentration at 1 h: 1 h after fifth 100 mg iv dose; for concentration at 2 h: 2 h after fifth 100 mg iv dose; for concentration at 4 h: 4 h after fifth 100 mg iv dose; for concentration at 8 h: 8 h after fifth 100 mg iv dose; for concentration at 12 h: 12 h after fifth 100 mg iv dose; for concentration at 24 h: 24 h after fifth 100 mg iv dose
# Protocol: Concomitant blood samples were taken to compare tissue with serum antibiotic concentrations. […]
# One standard bronchoscopy was performed for each subject. […] A blood sample was taken at the time of bronschoscopy for plasma urea measurement.
# During the bronchoscopy 4 aliquots of 50 mL each of sterile saline solution were instilled into the right lobe of the lungs, immediately aspirated, and placed on ice. The first bronchioalveolar lavage aliquot instilled (BALX) fraction was prepared and analyzed separately from subsequent instillations. The aspirate from the second through the fourth instillation, once pooled, represented the BAL fraction. An aliquot of BAL was removed and used to determine the cell count and differential cell composition including pulmonary macrophages. The remaining supernatant was centrifuged and the supernatant and cell pellet were immediately frozen pending analysis. An aliquot of the BAL supernatant was frozen separately for urea assay. The amount of test article detected in the cell pellet was normalized by the corresponding fraction of macrophages. Fraction BALX was analyzed in a similar manner, except the cell pellet was not assessed or assayed. A blood sample to determine urea concentration was obtained at the time of the second instillation (±3 minutes). The concentration of test article detected in the BALX and BAL fluid was normalized by the dilution factor with respect to urea levels detected in the BALX and BAL fractions respectively.
# All completed subjects with evaluable plasma PK parameter data were included in the PK data analysis.
# All the biofluid concentrations were expressed in ng/mL. All concentrations below the limit of quantification (BLQ) or missing data were labeled as such in the concentration data listings. Concentrations BLQ were treated as zero in summary statistics for concentration data only. They were not considered for calculation of PK Parameters (with the exception of the predose samples). PK parameters were determined using non-compartmental method(s) using WinNonlin Pro.
# These were obtained from the above plasma PK parameter calculations (AUC0-24 and AUC0-12). The tigecycline concentration information was serve as an internal validation for assay sensitivity purposes.
# The volume of the lung ELF within the BAL fluid was estimated by (ureaBAL/ureaplasma), where ureaBAL and ureaplasma represented the concentrations of urea in the BAL fluid and plasma, respectively.
# AUCELF and AUCAC were determined from pooled pulmonary concentration data and were summarized by treatment group. […] For the tigecycline cohort there were 5 ELF and AC concentrations for each of the 4 timepoints over the 12 hour dosing interval.
# For PK blood collection and processing, all blood samples were taken by either direct venipuncture or an indwelling cannula inserted in a forearm vein (on the arm contralateral to the infusion site) at the timepoints specified in the Study Flowchart. The PK blood sample collected at the bronchoscopy scheduled time was obtained at the time of the second BAL instillation (±3 minutes) from the arm contralateral to the infusion site.
# Blood samples were collected into labeled 4 mL tubes containing sodium heparin. Immediately after the sample was collected, the tube was gently inverted 5 to 8 times to thoroughly mix the anticoagulant and then placed upright in a cryoblock or test tube rack surrounded by ice until centrifugation. Samples were centrifuged at 1500×g (gravity) for 10 minutes at approximately 4° C. within 30 minutes of collection. The resultant plasma was divided into 2 equal aliquots, placed in individual cryovials, and immediately frozen at −70° C. or colder within 1 hour of collection. The tubes were kept frozen at −70° C. or colder pending shipment to the bioanalytical laboratory.
# [2] = tested on: Streptococcus pneumoniae; assay: Mouse model of lower respiratory tract infection; assay type: in vivo; settings: infection caused by Streptococcus pneumoniae
# [3] = tested on: Haemophilus influenzae; assay: Mouse model of lower respiratory tract infection; assay type: in vivo; settings: infection caused by Haemophilus influenzae
# [4] = Lung tissue versus plasma concentrations in mice; settings: mouse
# [5] = human, ELF (epithelial lung fluid from BAL) relative to plasma, read-out: ELF to Plasma (Mean, SD)
# [6] = human, alveolar macrophages (AM), read-out: AM concentration (mean ± SD)
# [7] = human, epithelial lining fluid (ELF), read-out: ELF concentration (mean ± SD)
# [8] = human, read-out: AM to Plasma (Mean, SD)
# [9] = human, plasma, read-out: Plasma concentration at time of BAL (mean ± SD)
smiles,measurement,setting,value
"CN(C)c1cc(CNCC(C)(C)C)c(O)c2c1C[C@H]1C[C@H]3[C@H](N(C)C)C(O)=C(C(N)=O)C(=O)[C@@]3(O)C(O)=C1C2=O [Compound 1, 9-[(2,2-dimethyl-propylamino)-methyl]-minocycline]",mean concentration in ELF higher than that in plasma,"[1]; FIG. 1, concentration vs. time profile",at least 40%
same,"maximum concentration (plasma), mean ± SD",[1]; after the fifth 100 mg iv dose,2.26 ± 0.76 µg/mL
same,Kp at 0.5 h,[1]; [5],0.95 ± 0.56
same,Kp at 1 h,[1]; [5],2.72 ± 1.26
same,Kp at 2 h,[1]; [5],1.5 ± 0.61
same,Kp at 4 h,[1]; [5],1.79 ± 0.49
same,Kp at 8 h,[1]; [5],1.07 ± 0.45
same,Kp at 12 h,[1]; [5],1.44 ± 0.57
same,Kp at 24 h,[1]; [5],1.65 ± 0.86
same,AUC,"[1]; human, ELF (epithelial lung fluid from BAL), AUC0-24 based on mean concentration at each BAL sampling time, read-out: ELF AUCmean",17.2 µg·h/mL
same,AUC,"[1]; human, ELF (epithelial lung fluid from BAL), AUC0-24 based on median concentration at each BAL sampling time, read-out: ELF AUCmedian",16.7 µg·h/mL
same,Kp,"[1]; human, alveolar cells (AC) / plasma, based on AUC0-24 of mean concentrations, read-out: Ratio AC:Plasma (AUCmean)",25.8
same,Kp,"[1]; human, alveolar cells (AC) / plasma, based on AUC0-24 of median concentrations, read-out: Ratio AC:Plasma (AUCmedian)",24.8
same,AUC,"[1]; human, alveolar cells (AC, BAL cell pellet), AUC0-24 based on mean concentration at each BAL sampling time, read-out: AC AUCmean",302 µg·h/mL
same,AUC,"[1]; human, alveolar cells (AC, BAL cell pellet), AUC0-24 based on median concentration at each BAL sampling time, read-out: AC AUCmedian",292 µg·h/mL
same,Kp,"[1]; human, alveolar cells (AC, mostly AM) / plasma, FIG. 1, concentration vs. time profile, read-out: mean concentration in AC (mostly AM) higher than that in plasma",~25
same,concentration at 0.5 h,[1]; [6],14.3 ± 9.3 µg/mL
same,concentration at 1 h,[1]; [6],12.8 ± 8.48 µg/mL
same,concentration at 2 h,[1]; [6],10.8 ± 7.59 µg/mL
same,concentration at 4 h,[1]; [6],18 ± 7.17 µg/mL
same,concentration at 8 h,[1]; [6],12.3 ± 4.7 µg/mL
same,concentration at 12 h,[1]; [6],12.3 ± 4.61 µg/mL
same,concentration at 24 h,[1]; [6],10.4 ± 4.04 µg/mL
same,Kp,"[1]; human, epithelial lining fluid (ELF) / plasma, penetration ratio based on AUC0-24 of mean concentrations, read-out: Ratio ELF:Plasma (AUCmean)",1.47
same,Kp,"[1]; human, epithelial lining fluid (ELF) / plasma, penetration ratio based on AUC0-24 of median concentrations, read-out: Ratio ELF:Plasma (AUCmedian)",1.42
same,concentration at 0.5 h,[1]; [7],1.73 ± 1.01 µg/mL
same,concentration at 1 h,[1]; [7],2.25 ± 0.72 µg/mL
same,concentration at 2 h,[1]; [7],1.51 ± 0.94 µg/mL
same,concentration at 4 h,[1]; [7],0.95 ± 0.33 µg/mL
same,concentration at 8 h,[1]; [7],0.58 ± 0.19 µg/mL
same,concentration at 12 h,[1]; [7],0.61 ± 0.29 µg/mL
same,concentration at 24 h,[1]; [7],0.41 ± 0.13 µg/mL
same,Kp at 0.5 h,[1]; [8],8.12 ± 5.95
same,Kp at 1 h,[1]; [8],13.8 ± 7.38
same,Kp at 2 h,[1]; [8],12.3 ± 6.57
same,Kp at 4 h,[1]; [8],34.7 ± 15.1
same,Kp at 8 h,[1]; [8],23.1 ± 11.2
same,Kp at 12 h,[1]; [8],29 ± 8.78
same,Kp at 24 h,[1]; [8],40.3 ± 10.3
same,AUC,"[1]; human, plasma, AUC0-24 based on mean concentration at each BAL sampling time, read-out: Plasma AUCmean",11.7 µg·h/mL
same,AUC,"[1]; human, plasma, AUC0-24 based on median concentration at each BAL sampling time, read-out: Plasma AUCmedian",11.8 µg·h/mL
same,concentration at 0.5 h,[1]; [9],1.8 ± 0.13 µg/mL
same,concentration at 1 h,[1]; [9],0.89 ± 0.19 µg/mL
same,concentration at 2 h,[1]; [9],0.93 ± 0.33 µg/mL
same,concentration at 4 h,[1]; [9],0.59 ± 0.15 µg/mL
same,concentration at 8 h,[1]; [9],0.56 ± 0.12 µg/mL
same,concentration at 12 h,[1]; [9],0.42 ± 0.07 µg/mL
same,concentration at 24 h,[1]; [9],0.27 ± 0.05 µg/mL
same,Vd,"[1]; human, plasma, after the fifth 100 mg iv dose, read-out: volume of distribution, mean ± SD",165 ± 58 L
same,efficacy in mouse model of lower respiratory tract infection,[2],effective
same,efficacy in mouse model of lower respiratory tract infection,[3],effective
same,Kp,[4],3.7 to 4.4
